From PubChem BioAssay AID248 (DTP/NCI, 2004)
Where “and” joins values, the source holds several entries; their conditions need not be identical. Equal values may be shown once. Inconclusive results and toxic doses are left out. Rule as the data show it: active = T/C of 150% or more; inactive = T/C below 125%.

System: L1210 leukemia ip in BDF1 mice, survival T/C
Test: NCI In Vivo Anticancer Drug Screen. Data for tumor model L1210 Leukemia (intraperitoneal) in B6D2F1 (BDF1) mice
Settings: endpoint: mean survival time, higher = longer survival
Outline: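 Read-out is survival time, reported as the treated-group measurement over the vehicle-control measurement.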

[1] = dose: 50.0 mg/kg/injection, schedule: Q01DX009 (ip), vehicle: saline with Tween-80
[2] = dose: 100.0 mg/kg/injection, schedule: Q01DX009 (ip), vehicle: saline with Tween-80
[3] = dose: 50.0 mg/kg/injection, schedule: Q01DX001 (ip), vehicle: saline
[4] = dose: 100.0 mg/kg/injection, schedule: Q01DX001 (ip), vehicle: saline
[5] = dose: 100.0 mg/kg/injection, schedule: Q04DX002 (ip), vehicle: saline with Tween-80
[6] = dose: 200.0 mg/kg/injection, schedule: Q04DX002 (ip), vehicle: saline with Tween-80
[7] = dose: 400.0 mg/kg/injection, schedule: Q04DX002 (ip), vehicle: saline with Tween-80
[8] = dose: 100.0 mg/kg/injection, schedule: Q04DX003 (ip), vehicle: saline with Tween-80
[9] = dose: 200.0 mg/kg/injection, schedule: Q04DX003 (ip), vehicle: saline with Tween-80
[10] = dose: 100.0 mg/kg/injection, schedule: Q01DX001 (ip), vehicle: saline with Tween-80
[11] = dose: 200.0 mg/kg/injection, schedule: Q01DX001 (ip), vehicle: saline with Tween-80
[12] = dose: 400.0 mg/kg/injection, schedule: Q01DX001 (ip), vehicle: saline with Tween-80
[13] = dose: 200.0 mg/kg/injection, schedule: Q01DX001 (ip), vehicle: saline
[14] = dose: 400.0 mg/kg/injection, schedule: Q01DX001 (ip), vehicle: saline

Measured: T/C

O=C(COc1cccc(Cl)c1)Nc1cccnc1
inactive: dose: 12.0 mg/kg/injection, schedule: Q01DX009 (ip), vehicle: Klucel (hydroxypropylcellulose) (HPC) 89 % of control | dose: 25.0 mg/kg/injection, schedule: Q01DX009 (ip), vehicle: Klucel (hydroxypropylcellulose) (HPC) 98 % of control | dose: 50.0 mg/kg/injection, schedule: Q01DX009 (ip), vehicle: Klucel (hydroxypropylcellulose) (HPC) 92 % of control | dose: 100.0 mg/kg/injection, schedule: Q04DX003 (ip), vehicle: Klucel (hydroxypropylcellulose) (HPC) 93 % of control | dose: 200.0 mg/kg/injection, schedule: Q04DX003 (ip), vehicle: Klucel (hydroxypropylcellulose) (HPC) 103 % of control | dose: 400.0 mg/kg/injection, schedule: Q01DX009 (ip), vehicle: Klucel (hydroxypropylcellulose) (HPC) 87 % of control

CCCCOCN1C(=O)NC(c2ccccc2)(c2ccccc2)C1=O
inactive: [1] 108 % of control | [2] 94 % of control

NS(=O)(=O)c1ccc(Cc2[nH]c(=O)[nH]c(=O)c2Br)cc1
inactive: dose: 25.0 mg/kg/injection, schedule: Q01DX001 (ip), vehicle: saline 101 % of control | [3] 95 % of control | [4] 101 % of control

CCOC(=O)c1ccc(F)cc1
inactive: [5] 101 % of control | [6] 115 % of control | [7] 104 % of control

O=C1c2ccccc2Cc2cscc21
inactive: [8] 91 % of control | [9] 91 % of control

N#C/C(=C\c1c[nH]c2ccccc12)c1ccc([N+](=O)[O-])cc1
inactive: dose: 100.0 mg/kg/injection, schedule: Q04DX002 (ip), vehicle: gum acacia 95 % of control | dose: 200.0 mg/kg/injection, schedule: Q04DX002 (ip), vehicle: gum acacia 101 % of control

CCOC(=O)Nc1cc(NCC(O)CN(C)c2ccc(OC)cc2)c([N+](=O)[O-])c(N)n1 (configuration not stated)
inactive: [10] 95 % of control | [11] 93 % of control | [12] 88 % of control

CCN1C(=O)/C(=C\C=C2\SCCN2CI)OC1=S
inactive: dose: 177.6 mg/kg/injection, schedule: Q01DX001 (ip), vehicle: other 98 % of control and 89 % of control | dose: 266.8 mg/kg/injection, schedule: Q01DX001 (ip), vehicle: other 96 % of control | dose: 400.0 mg/kg/injection, schedule: Q01DX001 (ip), vehicle: other 96 % of control and 89 % of control | dose: 600.0 mg/kg/injection, schedule: Q01DX001 (ip), vehicle: other 103 % of control and 87 % of control

N=c1c2c(N)nc(N)nc2c2ccccc2n1O
inactive: dose: 50.0 mg/kg/injection, schedule: Q04DX002 (ip), vehicle: saline 97 % of control | dose: 100.0 mg/kg/injection, schedule: Q04DX002 (ip), vehicle: saline 104 % of control | dose: 200.0 mg/kg/injection, schedule: Q04DX002 (ip), vehicle: saline 101 % of control

CCSCC(C)O (configuration not stated)
inactive: [5] 100 % of control | [6] 100 % of control | [7] 94 % of control

O=C(O)c1cc(C(=O)O)c(C(=O)O)cc1C(=O)O (tested in a mixture with another compound)
inactive: dose: 5.0 mg/kg/injection, schedule: Q01DX001 (ip), vehicle: saline 107 % of control | dose: 10.0 mg/kg/injection, schedule: Q01DX001 (ip), vehicle: saline 103 % of control | dose: 20.0 mg/kg/injection, schedule: Q01DX001 (ip), vehicle: saline 98 % of control | dose: 40.0 mg/kg/injection, schedule: Q01DX001 (ip), vehicle: saline 104 % of control | dose: 80.0 mg/kg/injection, schedule: Q01DX001 (ip), vehicle: saline 96 % of control | [4] 98 % of control

CC(C)(CC(=O)c1ccccc1)CC(=O)c1ccccc1
inactive: [4] 109 % of control | [13] 116 % of control | [14] 98 % of control

COc1ccc(OC)c(-n2cccc2C#N)c1
inactive: dose: 100.0 mg/kg/injection, schedule: Q04DX002 (ip), vehicle: Klucel (hydroxypropylcellulose) (HPC) 104 % of control | dose: 200.0 mg/kg/injection, schedule: Q04DX002 (ip), vehicle: Klucel (hydroxypropylcellulose) (HPC) 97 % of control | dose: 400.0 mg/kg/injection, schedule: Q04DX002 (ip), vehicle: Klucel (hydroxypropylcellulose) (HPC) 104 % of control

CC(C)C(CN)(CCCN1CCCC1)c1cccc2ccccc12 (configuration not stated)
inactive: [8] 102 % of control

O=C(O)C1Cc2ccccc2CN1 (configuration not stated)
inactive: dose: 25.0 mg/kg/injection, schedule: Q01DX009 (ip), vehicle: saline with Tween-80 95 % of control | [1] 98 % of control | [2] 96 % of control and 106 % of control

O=[N+]([O-])c1ccc(O)cc1/C=N/Nc1nnc(N/N=C/c2cc(O)ccc2[N+](=O)[O-])c2ccccc12
inactive: [3] 98 % of control | [4] 98 % of control | [13] 98 % of control | [14] 102 % of control

Cc1ccc(O)c(CCCC(=O)O)c1
inactive: dose: 100.0 mg/kg/injection, schedule: Q01DX009 (ip), vehicle: alcohol 100 % of control | dose: 200.0 mg/kg/injection, schedule: Q01DX009 (ip), vehicle: alcohol 101 % of control | dose: 400.0 mg/kg/injection, schedule: Q01DX009 (ip), vehicle: alcohol 98 % of control

CC(=O)Nc1cc([N+](=O)[O-])c(C)c([N+](=O)[O-])c1
inactive: [8] 104 % of control | [9] 97 % of control | dose: 400.0 mg/kg/injection, schedule: Q04DX003 (ip), vehicle: saline with Tween-80 97 % of control

CCCCCCC(CCCCCC)CCCCCC
inactive: [10] 99 % of control | [11] 100 % of control | [12] 99 % of control

O=C(O)C(O)c1cccc2ccccc12 (configuration not stated)
inactive: [2] 100 % of control | dose: 200.0 mg/kg/injection, schedule: Q01DX009 (ip), vehicle: saline with Tween-80 100 % of control
